ChEMBL document CHEMBL3046746, “Introduction to Receptors in Aging Diseases: GABA Receptors” (Med Chem Res, 2004)
Active and inactive are the calls of the source. The calls are words filed in the database; no cut-off is given here.

Assays:
Homo sapiens [1] = organism: Homo sapiens; assay: Selectivity ratio of Ki for GABAA alpha3beta3gamma3 (unknown origin) to Ki for GABAA alpha5beta3gamma2 (unknown origin)
Homo sapiens [2] = organism: Homo sapiens; assay: Selectivity ratio of Ki for GABAA alpha2beta3gamma2 (unknown origin) to Ki for GABAA alpha5beta3gamma2 (unknown origin)
Homo sapiens [3] = organism: Homo sapiens; assay: Selectivity ratio of Ki for GABA-Aalpha1beta3gamma2 (unknown origin) to Ki for GABAA alpha5beta3gamma2 (unknown origin)
Rattus norvegicus [4] = assay: In vivo GABAA alpha5beta3gamma2 receptor occupancy in Rattus norvegicus (rat) assessed as inhibition of [3H]L-655,708 binding at 0.3 mg/kg, ip; format: functional; conditions: route intraperitoneal
Rattus norvegicus [5] = assay: Cognitive enhancing effect in Rattus norvegicus (rat) at 0.3 mg/kg, ip by water maze test; format: functional, organism-based; design: dose 0.3 mg/kg
[6] = biological target: Gamma-aminobutyric acid receptor subunit alpha-3/ beta-3/gamma-3 (Homo sapiens) (UniProt P28472+Q99928+P34903); assay: Antagonist activity at GABAA alpha3beta3gamma3 in Homo sapiens (human) L(tk-) cells relative to GABA
[7] = biological target: GABA-A receptor; alpha-1/beta-3/gamma-2 (Homo sapiens) (UniProt P14867+P18507+P28472); assay: Modulation of GABA-Aalpha1beta3gamma2 in Homo sapiens (human) L(tk-) cells relative to GABA
[8] = biological target: GABA-A receptor; alpha-5/beta-3/gamma-2 (Homo sapiens) (UniProt P18507+P28472+P31644); assay: Modulation of GABAA alpha5beta3gamma2 in Homo sapiens (human) L(tk-) cells patch clamp assay relative to GABA
[9] = biological target: GABA-A receptor; alpha-2/beta-3/gamma-2 (Homo sapiens) (UniProt P18507+P28472+P47869); assay: Antagonist activity at GABAA alpha2beta3gamma2 in Homo sapiens (human) L(tk-) cells by patch clamp assay relative to GABA
[10] = biological target: T1, GABA-A receptor; alpha-5/beta-3/gamma-2 (Homo sapiens, UniProt P18507+P28472+P31644); assay: Inverse agonist activity at GABAA alpha5beta3gamma2 in Homo sapiens (human) L(tk-) cells by patch clamp assay
T1 sequence (P18507 whole entry): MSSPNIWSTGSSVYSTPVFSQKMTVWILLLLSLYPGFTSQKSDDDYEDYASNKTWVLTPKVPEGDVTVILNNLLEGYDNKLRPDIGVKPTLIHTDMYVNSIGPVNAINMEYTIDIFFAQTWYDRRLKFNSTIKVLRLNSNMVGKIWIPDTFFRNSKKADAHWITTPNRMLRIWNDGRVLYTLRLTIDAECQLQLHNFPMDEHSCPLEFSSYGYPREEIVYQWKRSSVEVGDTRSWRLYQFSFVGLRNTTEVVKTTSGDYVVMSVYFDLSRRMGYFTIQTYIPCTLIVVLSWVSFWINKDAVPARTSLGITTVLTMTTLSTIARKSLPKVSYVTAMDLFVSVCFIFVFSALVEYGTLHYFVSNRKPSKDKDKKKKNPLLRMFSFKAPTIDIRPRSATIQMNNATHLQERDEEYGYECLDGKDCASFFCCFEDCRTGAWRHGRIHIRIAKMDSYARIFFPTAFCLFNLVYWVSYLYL
T1 sequence (P28472 whole entry): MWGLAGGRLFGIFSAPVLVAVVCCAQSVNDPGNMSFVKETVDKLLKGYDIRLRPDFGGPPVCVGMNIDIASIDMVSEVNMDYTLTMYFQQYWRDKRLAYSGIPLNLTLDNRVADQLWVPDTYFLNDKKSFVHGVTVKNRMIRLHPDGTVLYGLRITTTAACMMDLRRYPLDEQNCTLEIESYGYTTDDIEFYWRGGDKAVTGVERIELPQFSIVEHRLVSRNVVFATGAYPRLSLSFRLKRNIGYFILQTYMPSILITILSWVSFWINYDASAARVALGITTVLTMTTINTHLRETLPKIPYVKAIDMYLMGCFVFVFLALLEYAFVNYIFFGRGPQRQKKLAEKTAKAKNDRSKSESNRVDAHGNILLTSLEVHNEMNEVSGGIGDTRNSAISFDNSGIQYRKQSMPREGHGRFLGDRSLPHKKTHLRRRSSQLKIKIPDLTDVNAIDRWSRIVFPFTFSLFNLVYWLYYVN
T1 sequence (P31644 whole entry): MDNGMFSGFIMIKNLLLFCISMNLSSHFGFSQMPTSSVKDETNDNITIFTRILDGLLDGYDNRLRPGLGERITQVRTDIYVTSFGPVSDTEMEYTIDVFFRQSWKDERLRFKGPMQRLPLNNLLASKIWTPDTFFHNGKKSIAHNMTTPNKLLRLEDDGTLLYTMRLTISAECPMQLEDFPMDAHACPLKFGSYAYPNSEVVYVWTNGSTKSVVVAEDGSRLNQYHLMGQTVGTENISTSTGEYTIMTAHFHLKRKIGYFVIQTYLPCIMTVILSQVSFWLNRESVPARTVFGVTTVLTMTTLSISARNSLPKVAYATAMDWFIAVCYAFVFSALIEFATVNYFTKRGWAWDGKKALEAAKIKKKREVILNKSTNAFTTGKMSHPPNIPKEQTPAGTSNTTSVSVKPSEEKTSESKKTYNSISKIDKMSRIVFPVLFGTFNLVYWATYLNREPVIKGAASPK

[11] = biological target: T2, Gamma-aminobutyric acid receptor subunit alpha-3/ beta-3/gamma-3 (Homo sapiens, UniProt P28472+P34903+Q99928); assay: Binding affinity to GABAA alpha3beta3gamma3 (unknown origin); format: protein-complex assay
T2 sequence (P28472 whole entry): T1 sequence (P28472 whole entry)
T2 sequence (Q99928 whole entry): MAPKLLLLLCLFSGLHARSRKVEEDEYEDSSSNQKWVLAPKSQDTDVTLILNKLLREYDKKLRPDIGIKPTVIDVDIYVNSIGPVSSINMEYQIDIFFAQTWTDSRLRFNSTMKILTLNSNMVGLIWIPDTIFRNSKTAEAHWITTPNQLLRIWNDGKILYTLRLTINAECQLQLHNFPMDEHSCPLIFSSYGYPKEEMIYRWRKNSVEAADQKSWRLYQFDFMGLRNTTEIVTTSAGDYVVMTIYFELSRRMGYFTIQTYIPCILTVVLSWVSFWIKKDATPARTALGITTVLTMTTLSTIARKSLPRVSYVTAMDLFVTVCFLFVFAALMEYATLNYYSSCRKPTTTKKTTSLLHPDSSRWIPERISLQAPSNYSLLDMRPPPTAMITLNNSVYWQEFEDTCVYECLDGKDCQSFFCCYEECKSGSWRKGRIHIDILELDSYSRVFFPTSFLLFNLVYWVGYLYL
T2 sequence (P34903 whole entry): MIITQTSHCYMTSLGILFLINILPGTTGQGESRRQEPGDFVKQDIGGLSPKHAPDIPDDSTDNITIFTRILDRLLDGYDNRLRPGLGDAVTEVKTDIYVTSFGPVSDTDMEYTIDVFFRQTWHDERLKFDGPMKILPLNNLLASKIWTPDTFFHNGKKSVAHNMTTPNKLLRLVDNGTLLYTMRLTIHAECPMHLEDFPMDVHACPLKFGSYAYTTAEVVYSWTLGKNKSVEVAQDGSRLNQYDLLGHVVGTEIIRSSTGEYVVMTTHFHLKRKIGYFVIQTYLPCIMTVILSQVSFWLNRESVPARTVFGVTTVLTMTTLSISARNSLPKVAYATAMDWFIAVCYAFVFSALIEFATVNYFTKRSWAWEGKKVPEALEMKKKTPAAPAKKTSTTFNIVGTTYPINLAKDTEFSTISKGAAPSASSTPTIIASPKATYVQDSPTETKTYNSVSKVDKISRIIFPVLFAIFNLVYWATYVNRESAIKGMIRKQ

CC1(C)CC(=O)c2c(SCCO)sc(-c3nccs3)c2C1
Ratio Ki (Homo sapiens [1]): 10 | Ratio Ki (Homo sapiens [2]): 10 | Ratio Ki (Homo sapiens [3]): 10 | Occ (Rattus norvegicus [4]): 40% | Activity (Rattus norvegicus [5]): Active | Activity [6]: Active | Efficacy [7]: -21% | Emax [8]: -51% | Activity [9]: Active | EC50 [10]: 0.7 nM | Ki [11]: 20 nM
